In US7772434B2, “Crystalline form of a β2 adrenergic receptor agonist” (Theravance, Inc., priority 2003, dated 2010):
Counter-ions that a name gives are not always drawn.

Assays:
[1] = Hygroscopicity / deliquescence on exposure to the atmosphere at high relative humidity; type: physicochemical; details: exposed to the atmosphere for prolonged periods at high relative humidity
[2] = Solid state stability testing (storage at elevated temperature and humidity); type: physicochemical
Method: Samples (250 mg each) of the monoHCl salt of Examples 9 and 10 were stored at 40° C. and 75% relative humidity in open containers and in closed containers. Additional samples (100 mg each) of the monoHCl salt were stored at 50° C. in closed containers. […] Water percentage of the samples stored at 40° C. was less than 0.25% after two and four weeks of storage.
The differential scanning calorimetry trace of Example 14, shown in FIG. 2 was obtained with a TA instruments model DSC2010. Samples were placed in sealed aluminum pans for analysis with an empty pan serving as the reference. Samples were equilibrated at 30° C. and heated at 5° C. per minute to a temperature of 300° C. The instrument was calibrated with an indium standard.
Thermogravimetric analysis was conducted using a TA instruments model Q50. Samples were weighed in aluminum pans and heated from 50° C. to 300° C. at a rate of 10° C./min.
HPLC analysis was conducted using a MAC MOD Ace-5, C18, 25 cm×4.6 mm, 5 μm column, equilibrated at 30° C. The mobile phases used were: A: 0.1% TFA in 98:2 water:acetonitrile; and B: 0.1% TFA in 10:90 water:acetonitrile. Detection was by UV absorbance at 244 nm. The initial condition was 6% phase B. A flow rate of 1.0 mL/min and gradients of 6 to 30% B over 25 min, 30% to 60% B in 10 min and 60% to 100% B in 2 min were utilized. The monoHCl salt of compound 1 gave a retention time of 19.1 min.
Water content was determined by coulometric Karl Fischer titration using a Brinkman Metrohm Karl Fischer Model 831 coulometer.

[3] = all storage conditions: 40° C. and 75% relative humidity in open and closed containers, 50° C. in closed containers, after four weeks

For `O=CNc1cc([C@@H](O)CNCCc2ccc(NC[C@H](O)c3ccccc3)cc2)ccc1O` [monohydrochloride salt of compound 1, N-{2-[4-((R)-2-hydroxy-2-phenylethylamino)phenyl]ethyl}-(R)-2-hydroxy-2-(3-formamido-4-hydroxyphenyl)ethylamine monohydrochloride], the hygroscopicity / deliquescence [1] was “neither hygroscopic nor deliquescent”, the “analysis by DSC and TGA” value [2, 3] was “no detectable differneces” and the “change in the appearance of the material” value [2, 3] was “no observable change”. The “chemical degradation, analysis by HPLC” value [2, 3] was “no detectable chemical degradation”, the thermal stability ([2]; at elevated temperatures) was “thermally stable” and the “analysis by DSC” value ([2]; four weeks at 40° C. and 75% humidity in open and closed containers and at 50° C. in a closed container) was “no detectable difference”. For the same molecule, the “chemical degradation, analysis by HPLC” value ([2]; four weeks at 40° C. and 75% humidity in open and closed containers and at 50° C. in a closed container, summary statement) was “no appreciable chemical degradation” and the “Water percentage of the samples” value ([2]; samples stored at 40° C. (75% relative humidity), after two and four weeks of storage, Karl Fischer) was “less than 0.25%”.
